In patent US11058668B2 (EIDOS THERAPEUTICS, INC., priority 2018, dated 2021):
Like-named read-outs stand apart in the source and are kept apart here.

Legend:
[1] = biological target: tetrameric TTR (Homo sapiens, UniProt P02766); assay: Phase 2 study, fluorescence probe (FPE) assay ex vivo; type: in vivo; set-up: monitoring TTR serum concentrations in trial participants; from tissue; host or cells: serum / plasma of ATTR-CM patients
Experimental: Aliquots of each serum sample are plated in 96 well plates. The fluorescence changes (λex=328 nm and λem=384 nm) after addition of probe are monitored every 15 min using a fluorescent capable microplate for 6 hr at RT.
(§1) The phase 2 clinical study was performed essentially as described in Example 3. A total of 49 patents were included instead of 45: 16 receiving 400 mg bid; 16 receiving 800 mg bid; and 17 receiving placebo.
TTR stabilization was measured ex vivo using the FPE and Western blot assays described at the beginning of the examples section. TTR stabilization was measured in vivo by monitoring TTR serum concentrations in trial participants.

[2] = Phase 2 study, tolerability in ATTR-CM patients; type: in vivo, human; settings: symptomatic ATTR-CM patients, 28 days
Experimental: Screening and randomization will be followed by a 28-day blinded, placebo-controlled treatment period. Approximately 45 subjects are planned to enroll in the Phase 2 study.
as §1

[3] = biological target: T1, TTR in human serum (Homo sapiens, UniProt P02766); assay: FPE assay in human serum; type: binding; settings: whole human serum, FPE concentration-effect
T1 construct: pooled human serum (prepared from human male AB plasma, Sigma; catalog no; H4522; TTR concentration 5 μM); tissue Sigma H4522; host or cells: pooled human serum from human male AB plasma
Excerpt: FPE assay for binding TTR in buffer and human or dog serum. […] The FPE probe is a thioester TTR ligand that is not fluorescent by itself, however upon binding to the T4 binding site of TTR it covalently modifies lysine 15 (K15), creating a fluorescent conjugate. Ligands that bind to the T4 site of TTR will decrease FPE probe binding as observed by lower fluorescence. […] The change in fluorescence (λex=328 nm and λem=384 nm) were monitored using a microplate spectrophotometer reader (SpectraMax M5) for 6 hr at rt. […] The change in fluorescence (λex=328 nm and λem=384 nm) were monitored using a microplate spectrophotometer reader (SpectraMax M5) for 6 hr at rt.

[4] = Phase 1 (AG10-001) single ascending dose pharmacokinetics; type: in vivo, human; settings: for Cmax / Tmax / concentration at 24 hr / AUC(0-t) / AUC(0-inf) / half-life: human, plasma; for concentration at 24 hr: read-out: C24
Experimental: Quantitation was performed using a weighted 1/x^2 linear least squares regression analysis generated from calibration standards prepared on the day of extraction.
One of the SAD cohorts received two 300 mg doses, one under fasted conditions and the other following a high fat test meal after an appropriate washout period.

[5] = pKa values of stabilizers; type: physicochemical; settings: carboxylic acid group
[6] = biological target: T2, TTR (Canis lupus familiaris, UniProt A0A8I3NFK0); assay: 7-day repeat oral dosing in dogs, TTR occupancy by FPE; type: in vivo, beagle dog
T2 construct: from tissue; host or cells: serum of orally dosed beagle dogs
Experimental: FPE assay for binding TTR in buffer and human or dog serum. […] The FPE probe is a thioester TTR ligand that is not fluorescent by itself, however upon binding to the T4 binding site of TTR it covalently modifies lysine 15 (K15), creating a fluorescent conjugate. Ligands that bind to the T4 site of TTR will decrease FPE probe binding as observed by lower fluorescence. The FPE assay was also adapted for use with dog serum. FPE with TTR in buffer: An aliquot of 98 μL of TTR in PBS (pH 7.4, final concentration: 2.5 μM) was mixed with 1 μL of test compounds (2.5 μM) and 1 μL of FPE probe (0.18 mM stock solution in DMSO: final concentration: 1.8 μM). The change in fluorescence (λex=328 nm and λem=384 nm) were monitored using a microplate spectrophotometer reader (SpectraMax M5) for 6 hr at rt. […] The change in fluorescence (λex=328 nm and λem=384 nm) were monitored using a microplate spectrophotometer reader (SpectraMax M5) for 6 hr at rt.
Blood (approximately 1.5 mL) was collected from a jugular vein into serum separator tubes on study day 1 (predose D1), pre-dose study day 7 (predose D7), and at 1 hr post-dose study day 7 (postdose D7). These serum samples were analyzed for their TTR occupancy using the FPE assay described above.

[7] = ATTR-CM patients, FPE vs plasma concentration
[8] = both sexes, oral, 300 mg, SAD Cohort 3, 300 mg, Fasted, geometric mean
[9] = both sexes, oral, 300 mg, SAD Cohort 3, 300 mg, Fed (high fat test meal), geometric mean
[10] = both sexes, po, 50 mg, single oral dose 50 mg AG10 HCl, healthy subjects, geometric mean ± SD
[11] = both sexes, po, 150 mg, single oral dose 150 mg AG10 HCl, healthy subjects, geometric mean ± SD
[12] = both sexes, po, 300 mg, single oral dose 300 mg AG10 HCl, healthy subjects, geometric mean ± SD
[13] = both sexes, po, 800 mg, single oral dose 800 mg AG10 HCl, healthy subjects, geometric mean ± SD

Q: Which results are given for Cc1n[nH]c(C)c1CCCOc1cc(C(=O)O)ccc1F [AG10, 3-(3-(3,5-dimethyl-1H-pyrazol-4-yl)propoxy)-4-fluorobenzoic acid]?
A: target engagement by day 14 (fluorescence probe assay) ([1]; 400 mg b.i.d. and 800 mg b.i.d., trough and peak time points): near full target engagement; blood plasma concentration at which full target engagement occurs [1, 7]: about 7.5 μM; blood plasma concentration at which significant target engagement occurs [1, 7]: ~5 µM; tolerability [2]: well tolerated; concentration at which complete occupancy is achieved [3]: ≥ 10 µM; food effect on the pharmacokinetics ([4]; 300 mg, fed versus fasted state): minimal food effect; mean Tmax ([4]; SAD cohorts 1-4, 50-800 mg AG10 HCl oral): under one; Cmax [4, 8]: 15.1 µM; Tmax [4, 8]: 0.707 h; concentration at 24 hr [4, 8]: 2.19 µM; Cmax [4, 9]: 10.2 µM; Tmax [4, 9]: 1.59 h; AUC(0-t) ([4]; both sexes, oral, 300 mg, SAD Cohort 3, 300 mg, Fed (high fat test meal), geometric mean, read-out: AUC0-24): 111 µM·h; concentration at 24 hr [4, 9]: 2.69 µM; AUC(0-inf) ([4]; both sexes, po, 50 mg): 97.1 ± 12.1 µM·h; Cmax [4, 10]: 7.2 ± 0.72 µM; Tmax [4, 10]: 0.891 ± 0.736 h; AUC(0-t) ([4]; both sexes, po, 50 mg, single oral dose 50 mg AG10 HCl, healthy subjects, geometric mean ± SD, read-out: AUC0-24): 58.9 ± 4.09 µM·h; AUC(0-t) ([4]; both sexes, po, 50 mg, single oral dose 50 mg AG10 HCl, healthy subjects, geometric mean ± SD, read-out: AUClast): 95 ± 11.8 µM·h; concentration at 24 hr [4, 10]: 1.05 ± 0.13 µM; half-life ([4]; both sexes, po, 50 mg, read-out: T1/2 (converted)): 25 ± 2.91 h; AUC(0-inf) ([4]; both sexes, po, 150 mg): 168 ± 46.8 µM·h; Cmax [4, 11]: 11.3 ± 4.76 µM; Tmax [4, 11]: 0.849 ± 0.97 h; AUC(0-t) ([4]; both sexes, po, 150 mg, single oral dose 150 mg AG10 HCl, healthy subjects, geometric mean ± SD, read-out: AUC0-24): 93 ± 16.8 µM·h; AUC(0-t) ([4]; both sexes, po, 150 mg, single oral dose 150 mg AG10 HCl, healthy subjects, geometric mean ± SD, read-out: AUClast): 166 ± 46 µM·h; concentration at 24 hr [4, 11]: 1.78 ± 0.465 µM; half-life ([4]; both sexes, po, 150 mg, read-out: T1/2 (converted)): 25.1 ± 3.58 h; AUC(0-inf) ([4]; both sexes, po, 300 mg): 191 ± 77 µM·h; Cmax [4, 12]: 15.1 ± 3.6 µM; Tmax [4, 12]: 0.707 ± 0.274 h; AUC(0-t) ([4]; both sexes, po, 300 mg, single oral dose 300 mg AG10 HCl, healthy subjects, geometric mean ± SD, read-out: AUC0-24): 100 ± 9.76 µM·h; AUC(0-t) ([4]; both sexes, po, 300 mg, single oral dose 300 mg AG10 HCl, healthy subjects, geometric mean ± SD, read-out: AUClast): 186 ± 73.8 µM·h; concentration at 24 hr [4, 12]: 2.19 ± 0.435 µM; half-life ([4]; both sexes, po, 300 mg, read-out: T1/2 (converted)): 22 ± 5.94 h; AUC(0-inf) ([4]; both sexes, po, 800 mg): 414 ± 87.5 µM·h; Cmax [4, 13]: 37.8 ± 11.3 µM; Tmax [4, 13]: 0.794 ± 0.258 h; AUC(0-t) ([4]; both sexes, po, 800 mg, single oral dose 800 mg AG10 HCl, healthy subjects, geometric mean ± SD, read-out: AUC0-24): 176 ± 27.7 µM·h; AUC(0-t) ([4]; both sexes, po, 800 mg, single oral dose 800 mg AG10 HCl, healthy subjects, geometric mean ± SD, read-out: AUClast): 410 ± 81.7 µM·h; concentration at 24 hr [4, 13]: 4.51 ± 0.565 µM; half-life ([4]; both sexes, po, 800 mg, read-out: T1/2 (converted)): 26.8 ± 8.48 h; half-life ([4]; both sexes, po, read-out: elimination half-life): 22 to 27 h; AUC(0-t) ([4]; oral, 300 mg, SAD Cohort 3, 300 mg, Fasted, geometric mean, read-out: AUC0-24): 99.6 µM·h; pKa [5]: 4.13; TTR occupancy at the steady state trough ([6]; 50, 100, 200 mg/kg/d oral, day 7 pre-dose): 81-94%; TTR occupancy at steady state Cmax ([6]; all AG10 treated groups, day 7 post-dose (1 hr)): > 97%
